How the values were obtained:
[1] = tested on: CCl4-induced chronic severe hepatic fibrosis; test: CCl4-induced chronic severe hepatic fibrosis model; type: in vivo, mice; details: 1 mg or 3 mg per kg per day, intraperitoneal or tail vein injection, 6-8 weeks
Description: The ICR, C57Bl/6 mice used in the experiment are purchased from SPF (Beijing) Biotechnology Co., Ltd., carbon tetrachloride is purchased from Aladdin Reagent (Shanghai) Co., Ltd. (C131583-1L), and corn oil is purchased from Sigma (C8267). 8-10 week-old female mice are selected and housed in the barrier for one week, they are randomly divided into two groups, and respectively injected with CCl4/corn oil (a volume ratio of 1:2) and corn oil. The dose of CCl4 is 2 ml/kg, twice a week for […]. After 6 weeks, the mice are anesthetized with 5% chloral hydrate, and part of the hepatic lobe is taken out, fixing with 4% paraformaldehyde, dehydrating and immersing in wax, then staining with Sirius Red (YY-R20384-100ML) kit for fibrosis, wherein the collagenous fibers are red, as shown in FIG. 3B. After successful identification of the modeling, the drug administration is performed by intraperitoneal injection or tail vein injection. […] Further, quantitative PCR is performed to identify the expression of fibrosis-related genes Acta2 (myofibroblast marker), Col1a1 (representing type I collagen), Col1a2 (representing type I collagen), Col6a1 (representing collagen), Col6a2 (representing collagen), and Vim (representing fibroblasts), as shown in FIG. 3E and FIG. 3F (continued). […]

[2] = tested on: human embryonic hepatocytes; test: In vitro amplification of human embryonic hepatocytes; type: cell-based; details: for cell amplification multiple: 12 days of passage culture (3 generations)
Description: Resuscitation of Human Embryonic Hepatocytes: human embryonic hepatocytes are removed from a liquid nitrogen tank (aborted fetus, frozen storage date is Jan. 15, 2014, frozen stock solution is cell banker 2, frozen cell number is 2×10^7/tube), quickly placing in a 37° C. water bath; and after melting the cells are immediately inhaled into a 15 ml centrifuge tube containing 5 ml of hepatocyte medium (control group), centrifuging at 50 g, 4° C. for 5 min; the supernatant is discarded, and the cells are resuspended in 500 ul hepatocyte medium and calculated as 1.16×10^6 with a cell recovery rate of 5.8%.
Inoculation of Human Embryonic Hepatocytes: inoculation density is 1×10^5/24 well plate, adding 500 μl hepatocyte medium (control group), hepatocyte medium containing 10 μM small molecules, and hepatocyte medium containing 20 μM small molecules respectively; 24 hours after inoculating, 3 wells of cells in each group are digested respectively to count the number of the cells, then calculating the cell adherent rate. 72 hours after inoculating, 3 wells of cells in each group are digested respectively to count the number of the cells. Multiple of the change of cell number may be obtained through dividing the number of cells at 72 hours after inoculation by the number of cells at 24 hours after inoculation. A portion of the cells per well (⅖ of the cell count) are taken for RNA extraction so as to detect human hepatocyte-related gene expression.
The First Passage of Human Embryonic Hepatocytes: cells are respectively inoculated into a 24-well plate coated with rat tail collagen (as described above), and the inoculum density is ⅗ of the number of cells after 72 hours of primary culture; 3 duplicate wells per group. After 72 hours of cell culture, the cells are digested to count the number. Multiple of the first passage amplification may be obtained through dividing the counted number of cells by the number of cells at the time of inoculation. A portion of the cells per well (⅖ of the cell count) are taken for RNA extraction so as to detect human hepatocyte-related gene expression.
The Second Passage of Human Embryonic Hepatocytes: cells are respectively inoculated into a 24-well plate coated with rat tail collagen (as described above), and the inoculum density is ⅗ of the number of cells after 72 hours of the first passage culture. […] After changing the medium every 2 days and continuing to culture for 144 hours (6 days), the cells are digested and counted. Multiple of the second passage amplification may be obtained through dividing the counted number of cells by the number of cells at the time of inoculation. […]

With Cc1ccc2c(c1)C(=O)[C@]1(O)CCN(c3ccccc3)C1=N2 [(−)-blebbistatin] as the compound, how does the “accumulation of collagenous fibers (Sirius red, Col I staining)” value [1] read?
The value was “inhibits”.

What about the activation of myofibroblasts [1] of the same compound?
Its activation of myofibroblasts is “inhibits”.

What about the cell amplification multiple ([2]; 20 μM Bleb medium) of the same compound?
Its cell amplification multiple is “about 13 times”.

And the cell amplification multiple ([2]; 10 μm small-molecule medium)?
The cell amplification multiple was “about 22.1 times”.

What about the “expression of human hepatocyte-specific genes ALB and AFP (real-time quantitative PCR)” value ([2]; 12 days of passage culture in 10 μM and 20 μM small molecule media) of the same compound?
The value was “still express human hepatocyte-specific genes”.

And the cell morphology ([2]; after 12 days of passage culture in small molecule medium)?
The cell morphology was “typical hepatocyte morphology”.

— patent US11622964B2, “Method for destroying cellular mechanical homeostasis and promoting regeneration and repair of tissues and organs, and use thereof” (INSTITUTE OF ZOOLOGY, CHINESE ACADEMY OF SCIENCES, priority 2018, dated 2023)
